Laboratory results: article PMC10088252

Settings: 400 mg BID (n=4)
Procedure: Dose adjustment was allowed according to the severity of toxicity [Supplementary Table 1].
The primary endpoints were safety, ORR and DCR assessed by investigators. […] AEs referred to treatment-emergent adverse events (TEAEs) and TRAEs were assessed by investigators. Serious adverse events (SAEs) referred to AEs meeting at least one of the following criteria: event leading to death; life-threatening event; event requiring hospitalization or extension of hospital stay; event leading to persistent or evident disability or dysfunction; event leading to congenital malformation or birth defect or event which might lead to injury or that need medical treatment to avoid the above mentioned important medical events.

## O=C(Nc1ccc(Oc2ccnc3c2CCN3)c(F)c1)c1c[nH]cc(-c2ccc(F)cc2)c1=O
  TRAE Dyskinesia, any grade: 0 n (%)
  TRAE Dyskinesia, grade 3-4: 0 n (%)
  TRAE Dysphonia, any grade: 0 n (%)
  TRAE Dysphonia, grade 3-4: 0 n (%)
  TRAE Dyspnoea, any grade: 0 n (%)
  TRAE Dyspnoea, grade 3-4: 0 n (%)
  TRAE Electrocardiogram QT prolonged, any grade: 0 n (%)
  TRAE Electrocardiogram QT prolonged, grade 3-4: 0 n (%)
  TRAE Elevated ALT, any grade: 3 (75.0) n (%)
  TRAE Elevated ALT, grade 3-4: 0 n (%)
  TRAE Elevated AST, any grade: 3 (75.0) n (%)
  TRAE Elevated AST, grade 3-4: 0 n (%)
  TRAE Elevated D dimer, any grade: 0 n (%)
  TRAE Elevated D dimer, grade 3-4: 0 n (%)
  TRAE Elevated GGT, any grade: 1 (25.0) n (%)
  TRAE Elevated GGT, grade 3-4: 0 n (%)
  TRAE Elevated LDH, any grade: 1 (25.0) n (%)
  TRAE Elevated LDH, grade 3-4: 0 n (%)
  TRAE Elevated alpha-HBDH, any grade: 1 (25.0) n (%)
  TRAE Elevated alpha-HBDH, grade 3-4: 0 n (%)
  TRAE Elevated bilirubin, any grade: 1 (25.0) n (%)
  TRAE Elevated bilirubin, grade 3-4: 0 n (%)
  TRAE Elevated blood creatinine, any grade: 1 (25.0) n (%)
  TRAE Elevated blood creatinine, grade 3-4: 0 n (%)
  TRAE Elevated creatine phosphokinase, any grade: 2 (50.0) n (%)
  TRAE Elevated creatine phosphokinase, grade 3-4: 0 n (%)
  TRAE Elevated serum urea, any grade: 0 n (%)
  TRAE Elevated serum urea, grade 3-4: 0 n (%)
  TRAE Elevated troponin, any grade: 0 n (%)
  TRAE Elevated troponin, grade 3-4: 0 n (%)
  TRAE Genital rash, any grade: 0 n (%)
  TRAE Genital rash, grade 3-4: 0 n (%)
  TRAE Haematuria, any grade: 0 n (%)
  TRAE Haematuria, grade 3-4: 0 n (%)
  TRAE Headache, any grade: 0 n (%)
  TRAE Headache, grade 3-4: 0 n (%)
  TRAE Hyperhidrosis, any grade: 0 n (%)
  TRAE Hyperhidrosis, grade 3-4: 0 n (%)
  TRAE Hyperlipidaemia, any grade: 1 (25.0) n (%)
  TRAE Hyperlipidaemia, grade 3-4: 0 n (%)
  TRAE Hypertension, any grade: 1 (25.0) n (%)
  TRAE Hypertension, grade 3-4: 0 n (%)
  TRAE Hypoaesthesia oral, any grade: 0 n (%)
  TRAE Hypoaesthesia oral, grade 3-4: 0 n (%)
  TRAE Hypocalcaemia, any grade: 0 n (%)
  TRAE Hypocalcaemia, grade 3-4: 0 n (%)
  TRAE Hypotension, any grade: 0 n (%)
  TRAE Hypotension, grade 3-4: 0 n (%)
  TRAE Insomnia, any grade: 0 n (%)
  TRAE Insomnia, grade 3-4: 0 n (%)
  TRAE Leukopenia, any grade: 1 (25.0) n (%)
  TRAE Leukopenia, grade 3-4: 0 n (%)
  TRAE Nausea, any grade: 0 n (%)
  TRAE Nausea, grade 3-4: 0 n (%)
  TRAE Neuritis, any grade: 0 n (%)
  TRAE Neuritis, grade 3-4: 0 n (%)
  TRAE Occult blood, any grade: 0 n (%)
  TRAE Occult blood, grade 3-4: 0 n (%)
  TRAE Oedema peripheral, any grade: 0 n (%)
  TRAE Oedema peripheral, grade 3-4: 0 n (%)
  TRAE Onycholysis, any grade: 0 n (%)
  TRAE Onycholysis, grade 3-4: 0 n (%)
  TRAE Oropharyngeal pain, any grade: 0 n (%)
  TRAE Oropharyngeal pain, grade 3-4: 0 n (%)
  TRAE PPE, any grade: 4 (100.0) n (%)
  TRAE PPE, grade 3-4: 3 (75.0) n (%)
  TRAE Paraesthesia, any grade: 0 n (%)
  TRAE Paraesthesia, grade 3-4: 0 n (%)
  TRAE Proteinuria, any grade: 0 n (%)
  TRAE Proteinuria, grade 3-4: 0 n (%)
  TRAE Pruritus, any grade: 0 n (%)
  TRAE Pruritus, grade 3-4: 0 n (%)
  TRAE Rash maculo-papular, any grade: 0 n (%)
  TRAE Rash maculo-papular, grade 3-4: 0 n (%)
  TRAE Sinus tachycardia, any grade: 0 n (%)
  TRAE Sinus tachycardia, grade 3-4: 0 n (%)
  TRAE Skin fissures, any grade: 0 n (%)
  TRAE Skin fissures, grade 3-4: 0 n (%)
  TRAE Supraventricular extrasystoles, any grade: 0 n (%)
  TRAE Supraventricular extrasystoles, grade 3-4: 0 n (%)
  TRAE Thrombocytopenia, any grade: 2 (50.0) n (%)
  TRAE Thrombocytopenia, grade 3-4: 1 (25.0) n (%)
  TRAE Upper respiratory tract infection, any grade: 0 n (%)
  TRAE Upper respiratory tract infection, grade 3-4: 0 n (%)
